{"source": "patent US5846971A", "about": "“Oral antifungal composition” (Schering Corporation, priority 1997, dated 1998)", "origin": "cited, not measured here", "key": {"Candida": {"tested_on": "Candida", "settings": "in suspensions"}, "Cryptococcus": {"tested_on": "Cryptococcus", "settings": "in suspensions"}, "Aspergillis": {"tested_on": "Aspergillis", "settings": "in suspensions"}}, "data": [{"smiles": "CC[C@@H]([C@H](C)O)n1ncn(-c2ccc(N3CCN(c4ccc(OC[C@@H]5CO[C@@](Cn6cncn6)(c6ccc(F)cc6F)C5)cc4)CC3)cc2)c1=O", "note": "[the antifungal compound, (-)-(2R-cis)-4-[4-[4-[4-[[-5-(2,4-difluorophenyl)-tetrahydro-5-(1H-1,2,4-triazol-1-ylmethyl)furan-3-yl]methoxy]phenyl]-1-piperazinyl]phenyl]-2,-4-dihydro-2-[(S)-1-ethyl-2(S)-hydroxypropyl]-3H-1,2,4-triazol-3-one]", "values": [{"measurement": "water solubility", "result": "extremely low water solubility"}, {"measurement": "antifungal activity", "setting": "Candida", "result": "potent antifungal activity"}, {"measurement": "antifungal activity", "setting": "Cryptococcus", "result": "potent antifungal activity"}, {"measurement": "antifungal activity", "setting": "Aspergillis", "result": "potent antifungal activity"}]}]}
